The results in this text go back to patent US20230117034A1, “PYRAZOLOTRIAZINES” (Bayer Aktiengesellschaft, priority 2019, published 2023).

Read-outs that look alike come from different tables or passages of the source.

Test [1] has as its system CAL-120, human breast adenocarcinoma cells. Put plainly: Proliferation assay CAL-120 (crystal violet, 4 days). It counts as cell-based. The settings on record: CAL-120 cells, median, read-out: Prolif-CAL-120, IC50-[mol/l] (median). The procedure, abridged:
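IC50 from a 4-parameter fit of crystal violet absorbance (595 nm), scaled between a day-0 plate (0%) and untreated wells (100%). Cells grown in 10% FCS medium were exposed to test substances at 0.01-10 µmol/L for 4 days, 0.1% DMSO final.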

For a further test, the target named is T1, CDK2/CycE (Homo sapiens, UniProt P24941).
T1 construct: purchased ProQinase GmbH (Freiburg, Germany); host or cells: insect cells (Sf9)
Put plainly: CDK2/CycE kinase assay (TR-FRET, 2 mM ATP). Format: biochemical. The note with it: 2 mM ATP (high ATP); median; read-out: CDK2/CyclinE, 2 mM ATP (high ATP), IC50 (median). The procedure, abridged: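 Biotin-peptide phosphorylation (0.75 µM substrate, 2 mM ATP final, 25 min, 22 °C) by Sf9-expressed GST-CDK2/GST-CycE, after a 15-min compound pre-binding step. Inhibition scaled between enzyme-free (100%) and uninhibited (0%) wells.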
On the technique in general: Time-resolved FRET reads energy transfer from a long-lived donor to a nearby acceptor.

As to `CN(CC(C)(C)O)c1nc(NCc2nc3cc(F)c(F)cc3[nH]2)n2ncc(C3CC3)c2n1` [Example 319, 1-[(8-cyclopropyl-4-{[(5,6-difluoro-1H-benzimidazol-2-yl)methyl]amino}pyrazolo[1,5-a][1,3,5]triazin-2-yl)(methyl)amino]-2-methylpropan-2-ol], the IC50 in test [1] (Homo sapiens, CAL-120, 96 h) worked out at 2.87 nM; at CDK2/CycE, 12100 nM. Turning to `CN(CC(C)(C)O)c1nc(NCc2nc3cc(F)c(Cl)cc3[nH]2)n2ncc(Br)c2n1` [Example 338, 1-[(8-bromo-4-{[(6-chloro-5-fluoro-1H-benzimidazol-2-yl)methyl]amino}pyrazolo[1,5-a][1,3,5]triazin-2-yl)(methyl)amino]-2-methylpropan-2-ol], the IC50 in test [1] (Homo sapiens, CAL-120, 96 h) was 1.93 nM; on CDK2/CycE, 6570 nM. For the compound `Brc1cnn2c(NCc3nc4ccccc4[nH]3)nc(N3CC4CCC(C3)O4)nc12` [Example 351, N-[(1H-benzimidazol-2-yl)methyl]-8-bromo-2-(8-oxa-3-azabicyclo[3.2.1]octan-3-yl)pyrazolo[1,5-a][1,3,5]triazin-4-amine], the IC50 in test [1] (Homo sapiens, CAL-120, 96 h) was found to be 38.4 nM; on CDK2/CycE, 7390 nM. For `CN(CC(C)(C)O)c1nc(NCc2nc3cc(F)c(F)cc3[nH]2)n2ncc(Br)c2n1` [Example 347], in that order: 2.47 nM and 9080 nM. For `CN1CCN(c2nc(NCc3nc4c(F)c(F)ccc4[nH]3)n3ncc(Cl)c3n2)CC1` [Example 358, 8-chloro-N-[(4,5-difluoro-1H-benzimidazol-2-yl)methyl]-2-(4-methylpiperazin-1-yl)pyrazolo[1,5-a][1,3,5]triazin-4-amine], the IC50 is 4.05 nM in test [1] (Homo sapiens, CAL-120, 96 h) and more than 20000 nM at CDK2/CycE. Consider `Cc1cc2nc(CNc3nc(N(C)CC(C)(C)O)nc4c(Br)cnn34)[nH]c2cc1C` [Example 343, 1-[(8-bromo-4-{[(5,6-dimethyl-1H-benzimidazol-2-yl)methyl]amino}pyrazolo[1,5-a][1,3,5]triazin-2-yl)(methyl)amino]-2-methylpropan-2-ol], for which the IC50 in test [1] (Homo sapiens, CAL-120, 96 h) is 1.82 nM; on CDK2/CycE, 1190 nM. In the case of `CCNc1nc(NCc2nc(-c3ccc(C)cc3)c[nH]2)n2ncc(Br)c2n1` [Example 26, 8-bromo-N^2-ethyl-N^4-{[4-(4-methylphenyl)-1H-imidazol-2-yl]methyl}pyrazolo[1,5-a][1,3,5]triazine-2,4-diamine], the IC50 at CDK2/CycE worked out at 2070 nM. `Cc1ccnc2[nH]c(CNc3nc(N4CCN(C)CC4)nc4c(C(C)C)cnn34)nc12` [Example 32, N-[(7-methyl-3H-imidazo[4,5-b]pyridin-2-yl)methyl]-2-(4-methylpiperazin-1-yl)-8-(propan-2-yl)pyrazolo[1,5-a][1,3,5]triazin-4-amine]: on CDK2/CycE, the IC50 turned out to be 15600 nM. As for `CC[C@H](COC)Nc1nc(NCc2nc3ccccc3[nH]2)n2ncc(Br)c2n1` [Example 369, N4-[(1H-benzimidazol-2-yl)methyl]-8-bromo-N2-[(2R)-1-methoxybutan-2-yl]pyrazolo[1,5-a][1,3,5]triazine-2,4-diamine], the IC50 in test [1] (Homo sapiens, CAL-120, 96 h) stood at 140 nM; on CDK2/CycE, 10500 nM.

With `Fc1cccc2[nH]c(CNc3nc(N4CC5CCC(C4)N5)nc4c(Cl)cnn34)nc12` [Example 363, 8-chloro-2-(3,8-diazabicyclo[3.2.1]octan-3-yl)-N-[(4-fluoro-1H-benzimidazol-2-yl)methyl]pyrazolo[1,5-a][1,3,5]triazin-4-amine], the IC50 in test [1] (Homo sapiens, CAL-120, 96 h) is 7.26 nM; at CDK2/CycE, 8610 nM. For the compound `Cc1cc2nc(CNc3nc(N4CCN(C)CC4)nc4c(Br)cnn34)[nH]c2cc1C` [Example 342, 8-bromo-N-[(5,6-dimethyl-1H-benzimidazol-2-yl)methyl]-2-(4-methylpiperazin-1-yl)pyrazolo[1,5-a][1,3,5]triazin-4-amine], the IC50 in test [1] (Homo sapiens, CAL-120, 96 h) turned out to be 1.52 nM; at CDK2/CycE, 2940 nM. With `Cc1[nH]c(CNc2nc(N3CCOCC3)nc3c(Br)cnn23)nc1-c1ccccc1` [Example 27, 8-bromo-N-[(5-methyl-4-phenyl-1H-imidazol-2-yl)methyl]-2-(morpholin-4-yl)pyrazolo[1,5-a][1,3,5]triazin-4-amine], the IC50 on CDK2/CycE was 17100 nM. As for `CN1C2CCC1CN(c1nc(NCc3nc4c(F)cccc4[nH]3)n3ncc(C(F)(F)F)c3n1)C2` [Example 384, N-[(4-fluoro-1H-benzimidazol-2-yl)methyl]-2-(8-methyl-3,8-diazabicyclo[3.2.1]octan-3-yl)-8-(trifluoromethyl)pyrazolo[1,5-a][1,3,5]triazin-4-amine], the IC50 in test [1] (Homo sapiens, CAL-120, 96 h) is 3.48 nM; at CDK2/CycE, more than 20000 nM. Turning to `FC(F)(F)c1ccc2[nH]c(CNc3nc(N4CC5CCC(C4)N5)nc4c(Br)cnn34)nc2c1` [Example 354, 8-bromo-2-(3,8-diazabicyclo[3.2.1]octan-3-yl)-N-{[5-(trifluoromethyl)-1H-benzimidazol-2-yl]methyl}pyrazolo[1,5-a][1,3,5]triazin-4-amine], in test [1] (Homo sapiens, CAL-120, 96 h), the IC50 was found to be 2.8 nM. For the compound `FC(F)(F)c1cnn2c(NCc3nc4cc(Cl)c(Cl)cc4[nH]3)nc(N3CCOCC3)nc12` [Example 332, N-[(5,6-dichloro-1H-benzimidazol-2-yl)methyl]-2-(morpholin-4-yl)-8-(trifluoromethyl)pyrazolo[1,5-a][1,3,5]triazin-4-amine], the IC50 in test [1] (Homo sapiens, CAL-120, 96 h) is 10.9 nM; at CDK2/CycE, more than 20000 nM. For `Brc1cnn2c(NCc3nc4ccccc4[nH]3)nc(N3CCN4CCC3C4)nc12` (stereo not shown) [Example 350, N-[(1H-benzimidazol-2-yl)methyl]-8-bromo-2-(1,4-diazabicyclo[3.2.1]octan-4-yl)pyrazolo[1,5-a][1,3,5]triazin-4-amine], in that order: 4.35 nM and 3390 nM. For `Brc1cnn2c(NCc3nc4ccccc4[nH]3)nc(N3C[C@H]4CC[C@@H]3CO4)nc12` (single isomer, unassigned) [Example 383, N-[(1H-benzimidazol-2-yl)methyl]-8-bromo-2-{[1R or S-(1R*,4R*)]-2-oxa-5-azabicyclo[2.2.2]octan-5-yl}pyrazolo[1,5-a][1,3,5]triazin-4-amine], in that order: 11.4 nM and 3950 nM. For `Brc1cnn2c(NCc3nc4ccccc4[nH]3)nc(N3C[C@H]4CC[C@@H]3CN4)nc12` (single isomer, unassigned) [Example 335, N-[(1H-benzimidazol-2-yl)methyl]-8-bromo-2-{[1R or S-(1R*,4R*)]-2,5-diazabicyclo[2.2.2]octan-2-yl}pyrazolo[1,5-a][1,3,5]triazin-4-amine], the IC50 in test [1] was found to be 4.24 nM; at CDK2/CycE, 2800 nM. As to `CN1CCN(c2nc(NCc3nc4cc(Cl)c(Cl)cc4[nH]3)n3ncc(Br)c3n2)CC1` [Example 330, 8-bromo-N-[(5,6-dichloro-1H-benzimidazol-2-yl)methyl]-2-(4-methylpiperazin-1-yl)pyrazolo[1,5-a][1,3,5]triazin-4-amine], the IC50 in test [1] (Homo sapiens, CAL-120, 96 h) amounted to 2.44 nM; on CDK2/CycE, 13800 nM. With `Fc1ccc2[nH]c(CNc3nc(N4CCOCC4)nc4c(Cl)cnn34)nc2c1F` [Example 357], the IC50 in test [1] (Homo sapiens, CAL-120, 96 h) was found to be 4.33 nM; on CDK2/CycE it was 11900 nM.

Take `CN1C2CCC1CN(c1nc(NCc3nc4c(F)c(F)ccc4[nH]3)n3ncc(C(F)(F)F)c3n1)C2` [Example 356, N-[(4,5-difluoro-1H-benzimidazol-2-yl)methyl]-2-(8-methyl-3,8-diazabicyclo[3.2.1]octan-3-yl)-8-(trifluoromethyl)pyrazolo[1,5-a][1,3,5]triazin-4-amine]: the IC50 in test [1] (Homo sapiens, CAL-120, 96 h) is 2.1 nM; at CDK2/CycE it was more than 20000 nM. On to `Clc1cc2nc(CNc3nc(N4CC5CCC(C4)N5)nc4c(C5CC5)cnn34)[nH]c2cc1Cl` [Example 324, 8-cyclopropyl-2-(3,8-diazabicyclo[3.2.1]octan-3-yl)-N-[(5,6-dichloro-1H-benzimidazol-2-yl)methyl]pyrazolo[1,5-a][1,3,5]triazin-4-amine], for which the IC50 in test [1] (Homo sapiens, CAL-120, 96 h) turned out to be 1.17 nM; at CDK2/CycE, 13800 nM. With `CN(CC(C)(C)O)c1nc(NCc2nc3c(F)c(F)ccc3[nH]2)n2ncc(Cl)c2n1` [Example 359, 1-[(8-chloro-4-{[(4,5-difluoro-1H-benzimidazol-2-yl)methyl]amino}pyrazolo[1,5-a][1,3,5]triazin-2-yl)(methyl)amino]-2-methylpropan-2-ol], the IC50 in test [1] (Homo sapiens, CAL-120, 96 h) is 5.69 nM; on CDK2/CycE it was 12400 nM. As to `Brc1cnn2c(NCc3nc4ccccc4[nH]3)nc(N3CC4CCC3CO4)nc12` (stereo not shown) [Example 352, N-[(1H-benzimidazol-2-yl)methyl]-8-bromo-2-(2-oxa-5-azabicyclo[2.2.2]octan-5-yl)pyrazolo[1,5-a][1,3,5]triazin-4-amine], the IC50 in test [1] (Homo sapiens, CAL-120, 96 h) amounted to 8.05 nM; at CDK2/CycE, 2300 nM. `CN(c1nc(NCc2nc3ccccc3[nH]2)n2ncc(Br)c2n1)[C@H]1C[C@@H](O)C1` [Example 364, cis-3-[(4-{[(1H-benzimidazol-2-yl)methyl]amino}-8-bromopyrazolo[1,5-a][1,3,5]triazin-2-yl)(methyl)amino]cyclobutan-1-ol]: the IC50 on CDK2/CycE was determined as 2070 nM.

As to `CC(C)c1cnn2c(NCc3ncc(-c4ccccc4)[nH]3)nc(N3CCOCC3)nc12` [Example 30, 2-(morpholin-4-yl)-N-[(5-phenyl-1H-imidazol-2-yl)methyl]-8-(propan-2-yl)pyrazolo[1,5-a][1,3,5]triazin-4-amine], on CDK2/CycE, the IC50 worked out at 7280 nM.
